Publication PMC9114382, “The K-Ras(G12D)-inhibitory peptide KS-58 suppresses growth of murine CT26 colorectal cancer cell-derived tumors” (Scientific Reports, 2022)
Numbered stars: 1 amine (or outer) side, 2 acyl side, 3 side chain; on linkers, the order of the positions; unused ones are H or OH. Bridge positions count the residues as written; N and C are the ends. Square brackets hold non-standard residues; d marks the D form. Peptide text beside a SMILES is read from it. Phe(4-F) = N[C@@H](Cc1ccc(F)cc1)C(=O)O; X1 = CCCCCCC[C@H](N[*:1])C(=O)[*:2]; Nle = CCCC[C@H](N)C(=O)O; X2 = C(C[*:1])C[*:2]; βAla = NCCC(=O)O

Experiments:
[1] = Pharmacokinetics after intravenous injection; format: in vivo, mouse; conditions: 10 mg/kg i.v., LC-MS/MS
Protocol: (§1) Experimental procedures that involved animals and their care were conducted in compliance with the Guide for the Care and Use of Laboratory Animals[15] and ARRIVE guidelines[16],[17]. Animal experiments were approved by the Animal Care and Use Committee of Osaka University (approval No. DouyakuR01-3–1) and conducted at Osaka University in accordance with the guidelines. LC–MS/MS data were obtained using a Xevo TQ-S mass spectroscopy system (Waters Corp., Milford, MA, USA) connected to an ACQUITY UPLC system (Waters) equipped with a BEH C18 column (1.7 μm, 2.1 × 50 mm, Waters). Mobile phase A was 0.1% formic acid in water and mobile phase B was 0.1% formic acid in acetonitrile. The gradient elution profile was 2% B at 0 min to 98% B at 1.8 min, and the flow rate was 0.5 mL/min.
For pharmacokinetics studies, KS-58 was dissolved in saline and administered intravenously to female BALB/c mice at 10 mg/kg. Serial blood samples (20 μL) were collected from the tail vein using heparinized tips at 7.5, 15, 30, 60, 120, 240, 320, and 1440 min after KS-58 administration. Aliquots (5 μL) of plasma obtained from each blood sample were treated with 50 μL acetonitrile and the organic layer was injected onto the LC–MS/MS system. Pharmacokinetic parameters were obtained by fitting the plasma concentration–time data to a noncompartmental model using PKPlus software (Northern Science Consulting Inc, Sapporo, Japan).

[2] = Stability in mouse liver microsomes; format: in vitro ADME; conditions: mouse hepatic microsomes (XenoTech), with NADP cofactor, 37 °C, 1 h incubation, LC-MS/MS, read-out: fraction of initial concentration remaining in mouse liver microsomes
Protocol: as §1
(§2) For evaluation of stability, KS-58 was incubated with commercial hepatic microsomes (XenoTech Ltd, KS, USA) in X medium supplemented with nicotinamide adenine dinucleotide phosphate for 10 and 60 min at 37 °C. The fraction (%) remaining in the medium was determined using the LC–MS/MS system (Waters). We also examined the fraction (%) remaining in fresh mouse blood after 60 and 120 min of incubation at 37 °C using the same LC–MS/MS system.

[3] = Stability in human liver microsomes; format: in vitro ADME; conditions: human hepatic microsomes (XenoTech), with NADP cofactor, 37 °C, 1 h incubation, LC-MS/MS, read-out: fraction of initial concentration remaining in human liver microsomes
Protocol: as §1, §2

[4] = Stability in mouse whole blood; format: in vitro ADME; conditions: fresh whole blood, 37 °C, 2 h incubation, LC-MS/MS, read-out: fraction of initial concentration intact in whole blood
Protocol: as §1, §2

[5] = estimated using RP-HPLC; cited from earlier work
[6] = Systemic safety in CT26 tumor-bearing mice (body and organ weights, kidney and liver histomorphology); format: in vivo, mouse
Protocol: Experimental procedures that involved animals and their care were conducted in compliance with the Guide for the Care and Use of Laboratory Animals[15] and ARRIVE guidelines[16],[17]. Animal experiments were approved by Animal Care and Use Committee of UNITECH Co. Ltd. (Kashiwa, Japan) (approval No. AGR IMF-210415A-30) and conducted at UNITECH in accordance with the guidelines. To establish subcutaneous allograft tumors, 1 × 10^6 CT26 cells/100 µL were subcutaneously injected into the left groin region of BALB/cCrSlc female mice (7 weeks old; Japan SLC, Inc., Shizuoka, Japan). Immediately before treatment, KS-58 was dissolved in DMSO and then diluted tenfold in normal saline. Tumor-baring mice in vehicle control, KS-58 (low), and KS-58 (high) groups were injected intravenously with vehicle (1:10 DMSO to saline, v/v), 10 mg/kg KS-58 solution, or 40 mg/kg KS-58 solution, respectively, once every 2 days for 17 days (n = 8 mice per major group, n = 3 mice per satellite group) (Fig. 1B). For anti-PD-1 monotherapy or combination treatment, GoInVivo Purified anti-mouse PD-1 (CD279, Cat.#114114, BioLegend, San Diego, CA, USA) was dissolved in PBS and injected intraperitoneally at 50 mg/kg on days 6, 8, and 10 (n = 8 mice in major groups, n = 3 in satellite groups). Tumor growth rate was recorded on day 1, 4, 8, 11, 15, and 17 by measuring the major and minor axes with a digital caliper. Measurements were transformed into tumor volumes using the formula tumor volume (mm^3) = major axis × minor axis^2 × 0.5. Tumors (with surrounding skin), liver, and kidneys were collected from satellite groups on day 15, fixed in formalin, and then maintained in 70% ethanol for histological analyses. Tumor, liver, and kidneys were collected from major groups on day 17 within 3 h of the last injection and weighed. The tumors were subsequently frozen in liquid nitrogen and stored at − 80 °C until homogenization for Western blotting.
Tumors, livers, and kidneys were harvested from mice and fixed with 10% neutral-buffered formalin. […]

[7] = Translocation to blood cells; format: in vitro ADME; conditions: whole blood (Fig. 4D)
[8] = Plasma protein binding (dialysis); format: in vitro ADME; conditions: dialysis of plasma against PBS pH 7.4, 5 h, 37 °C, LC-MS/MS, human and mouse plasma (Fig. 4E)
Protocol: as §1
For evaluation of plasma protein binding, the plasma compartment containing KS-58 was dialyzed against PBS (pH 7.4) for 5 h at 37 °C and the concentrations remaining in each compartment were quantified by LC–MS/MS.

[9] = satellite groups, day 15, HE staining, n = 3

time at which plasma concentration decreased to ~50% of the initial concentration ([1]; mice): about 30 min
plasma concentration after 4 h ([1]; mice, limit of detection ~250 nM): below the limit of detection
half-life ([1]; mouse, iv, female BALB/c mice, plasma, noncompartmental, mean ± SD, n = 3): ~30 min
remaining at 1 h [2]: 46.2%
remaining at 1 h [3]: 77%
remaining at 2 h [4]: 92.3%
fraction bound to plasma proteins [8]: more than 90%
fraction unbound at 5 h ([8]; read-out: free fraction in plasma): < 0.1
Structure (SMILES): CCCCCCC[C@@H]1NC(=O)[C@@H]2CSCCCSC[C@@H](NC(=O)[C@H](Cc3c[nH]c4ccccc34)NC(=O)[C@@H]3CCCN3C(=O)[C@H](CC(=O)O)NC(=O)[C@H](Cc3ccc(F)cc3)NC(=O)[C@H](CO)NC1=O)C(=O)NCCC(=O)N1CCC[C@H]1C(=O)N[C@@H](CCCC)C(=O)N2 [KS-58] (cyclo([βAla]P[Nle]C[X1]S[Phe(4-F)]DPW[dC]); linker 4-11 via X2)
half-life in whole blood [5]: ~ 60 min
body weight gain/loss and weights of liver and kidney vs vehicle controls ([6]; KS-58 10 or 40 mg/kg i.v. every 2 days for 17 days, n = 8): neither body weight gain/loss (Fig. 2B) nor the weights of liver and kidney (Fig. 2C) were significantly altered
kidney histomorphology [6, 9]: No obvious histological changes in any of the nephron segments
liver histomorphology [6, 9]: hepatocellular hypertrophy with cytoplasmic eosinophilic change
translocation into blood cells [7]: a substantial fraction of KS-58 was translocated into blood cells
